The results in this text go back to patent publication US20200253929A1, “TREATMENT OF EPILEPSY” (priority 2017, published 2020).

What is called IC50 is the concentration needed to halve the response being measured.

One data set deals with SHSY5Y cells. Nature of the data set: Cell viability MTT assay, SHSY5Y cells. Format: cell-based, human. The conditions noted are these: 24 h incubation; for IC50: read-out: Cytotoxicity SHSY5Y cells IC50. As for the experimental part:
(§1) Protocol was based on literature [Patel and Patel. (2011) J. App. Pharm. Sci 1, 167-171]. Three cell lines were used: a) Hep G2 (HB-8065), a well-differentiated human hepatocellular carcinoma cell line, b) THLE-2, human liver epithelial cells transformed with SV40 large T-antigen and c) SHSYSY, a thrice-cloned sub-line of a human metastatic bone tumor. Cells were seeded at a concentration of 1×10^4 cells/well in 200 μL culture medium and incubated at 37° C. in 5% CO2 using 96-well plates for 24 h. Next, the medium was replaced with medium complemented with test compounds. After another 24 h incubation, the medium was replaced by 100 μL of a MTT (3-(4,5-dimethylthiazol-2-yl)-2,5-diphenyltetrazolium bromide) solution (5 mg/mL in PBS and diluted at 0.5 mg/mL in MEM without phenol red). The plates were gently shaken and incubated for 3 hours at 37° C. in a 5% CO2 incubator. The supernatant was removed and 100 μL of 100% DMSO was added. The plates were gently shaken to solubilize the formed formazan. The absorbance was measured using a multireader (Victor2 (Wallac)) at a wavelength of 570 nm.
(Tetrazolium assays rely on reduction of a dye to a coloured formazan, in cell work by metabolically active cells.)

Another data set addresses T1, CYP3A4 (Homo sapiens, UniProt P08684).
T1 construct: containing Human Liver Microsomes (HLM) (0.5 mg/mL); from tissue; host or cells: human liver microsomes
Nature of the data set: CYP450 enzyme inhibition assay, CYP3A4. Format: in vitro ADME. Conditions: human liver microsomes; for IC50: testosterone probe. As for the experimental part:
(§2) Protocol was based on literature [Perez-Del Palacio et al. (2017) Front Pharmacol 8, 202]. Assessment of CYP450 inhibition was conducted in 96-well plate format at 37° C. Test compounds were dissolved in DMSO/acetonitrile (2 μL) and diluted in 98 μL NADPH solution (2 mM). Reactions were started by addition of 100 μL potassium phosphate buffer (200 mM, pH 7.4) containing Human Liver Microsomes (HLM) (0.5 mg/mL). Probe reactions for CYP3A4, CYP2D6 and CYP2C9 were conducted with 50 μM testosterone, 22 μM dextromethorphan and 10 μM diclofenac for 15 min. Reactions were terminated with the addition of a quench solution (90 μL) of acetonitrile containing internal standards for LC-MS/MS determination (60 ppb cortisone, 100 ppb 4′-hydroxydiclofenac 13C6, 60 ppb levallorphan).
In general terms: Microsomes from liver hold many membrane-bound enzymes, among them those of drug oxidation.

A further data set concerns HEPG2 cells. Nature of the data set: Cell viability MTT assay, HEPG2 cells. Format: cell-based, human. Conditions: 24 h incubation; for IC50: read-out: Cytotoxicity HEPG2 cells IC50. On the procedure:
as §1

In a further data set the target is T2, CYP2D6 (Homo sapiens, UniProt P10635).
T2 construct: containing Human Liver Microsomes (HLM) (0.5 mg/mL); from tissue; host or cells: human liver microsomes
Briefly: CYP450 enzyme inhibition assay, CYP2D6. Format: in vitro ADME. The conditions noted are these: human liver microsomes; for IC50: dextromethorphan probe. As for the experimental part: as §2

Data set [1] relates to PTZ-induced epileptiform brain activity in zebrafish larvae. Briefly: Zebrafish PTZ seizure model, local field potential recordings (electrophysiology). Conditions: 10 min recording, vs VHC+PTZ; for reduction of percentage of larvae with PTZ-induced epileptiform activity: MTC and optimal incubation time (2 h azaspirofuran, 18 h pseurotins), 15 min PTZ; for cumulative duration of epileptiform events / number of epileptiform events: MTC and optimal incubation time. Format: in vivo, Danio rerio. The source says:
To determine whether azaspirofuran A and pseurotin A2 can ameliorate the PTZ-induced hyperexcitable state of the brain that is characterized by epileptiform discharges, local field potential (LFP) recordings were non-invasively measured from the midbrain (optic tectum) of zebrafish larvae [Zdebik et al. (2013) PLoS One 8, e79765; Britton et al. (2016) In Electroencephalography (EEG): An Introductory Text and Atlas of Normal and Abnormal Findings in Adults, Children, and Infants (St. Louis and Frey, Eds.), Chicago]. To that end larvae were treated with either VHC or test compound (MTC and optimal incubation time were used) followed by a 15 min during exposure to PTZ or VHC prior to the electrophysiology measurements (FIG. 4). […] Thus, both compounds not only ameliorate PTZ-induced seizures but are likely to do so by lowering the PTZ-induced hyperexcitable state of the brain.
Experimental procedure was described before [Zdebik et al. (2013) PLoS One 8, e79765; Sourbron et al. (2017) Front. Pharmac. 8, 191; Copmans et al. (2018) Neurochem. Int. 112, 124-133.]. Non-invasive LFP recordings were measured from the midbrain (optic tectum) of 7 dpf zebrafish larvae pre-incubated with VHC only, PTZ only, compound and VHC, or compound and PTZ. Larvae were incubated for approximately 2 or 18 hours with VHC (1% DMSO) or compound (1% DMSO) in a 100 μL volume. After incubation, 100 μL of VHC (embryo medium) or 40 mM PTZ (dissolved in embryo medium, 20 mM working concentration) was added to the well for 15 min prior to recording. These steps occurred at 28° C., while further manipulation and electrophysiological recordings occurred at room temperature (21° C.). The larva was embedded in 2% low melting point agarose (Invitrogen) and the signal electrode (an electrode inside a soda-glass pipet (1412227, Hilgenberg) pulled with a DMZ Universal Puller (Zeitz, Germany), diameter±20 microns, containing artificial cerebrospinal fluid (ACSF: 124 mM NaCl, 10 mM glucose, 2 mM KCl, 2 mM MgSO4, 2 mM CaCl2, 1.25 mM KH2PO4, and 26 mM NaHCO3, 300-310 mOsmols)) was positioned on the skin covering the optic tectum. A differential extracellular amplifier (DAGAN, USA) amplified the voltage difference between the signal (measured by the signal electrode) and the reference electrode. The differential signal was band pass filtered at 0.3-300 Hz and digitized at 2 kHz via a PCI-6251 interface (National instruments, UK) using WinEDR (John Dempster, University of Strathclyde, UK). A grounding electrode grounded the electrical system. All electrodes were connected with ACSF. Each recording lasted 600 seconds. Manual analysis was completed by quantification of the number, cumulative duration, and mean duration of epileptiform-like events with Clampfit 10.2 software (Molecular Devices Corporation, USA). An electrical discharge was considered epileptiform if it was a poly-spiking event comprising at least 3 spikes with a minimum amplitude of three times the baseline amplitude and a duration of at least 100 milliseconds. Data are expressed as mean±SD for the number and cumulative duration of epileptiform events and as mean±SEM for the mean duration of events.

T2 sequence (P10635 whole entry): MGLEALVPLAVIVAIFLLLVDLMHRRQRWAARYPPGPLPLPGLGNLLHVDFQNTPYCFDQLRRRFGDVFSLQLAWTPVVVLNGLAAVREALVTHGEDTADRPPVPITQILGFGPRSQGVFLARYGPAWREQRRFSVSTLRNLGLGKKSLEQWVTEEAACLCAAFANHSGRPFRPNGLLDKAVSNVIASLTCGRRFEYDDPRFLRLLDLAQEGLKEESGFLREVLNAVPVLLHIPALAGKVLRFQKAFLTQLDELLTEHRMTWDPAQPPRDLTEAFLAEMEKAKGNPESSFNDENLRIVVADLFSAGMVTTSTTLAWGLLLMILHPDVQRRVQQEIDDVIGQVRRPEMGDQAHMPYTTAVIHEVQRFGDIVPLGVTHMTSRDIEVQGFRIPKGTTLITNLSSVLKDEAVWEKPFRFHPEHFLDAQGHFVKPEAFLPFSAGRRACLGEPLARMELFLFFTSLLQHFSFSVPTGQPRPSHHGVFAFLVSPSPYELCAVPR
T1 sequence (P08684 whole entry): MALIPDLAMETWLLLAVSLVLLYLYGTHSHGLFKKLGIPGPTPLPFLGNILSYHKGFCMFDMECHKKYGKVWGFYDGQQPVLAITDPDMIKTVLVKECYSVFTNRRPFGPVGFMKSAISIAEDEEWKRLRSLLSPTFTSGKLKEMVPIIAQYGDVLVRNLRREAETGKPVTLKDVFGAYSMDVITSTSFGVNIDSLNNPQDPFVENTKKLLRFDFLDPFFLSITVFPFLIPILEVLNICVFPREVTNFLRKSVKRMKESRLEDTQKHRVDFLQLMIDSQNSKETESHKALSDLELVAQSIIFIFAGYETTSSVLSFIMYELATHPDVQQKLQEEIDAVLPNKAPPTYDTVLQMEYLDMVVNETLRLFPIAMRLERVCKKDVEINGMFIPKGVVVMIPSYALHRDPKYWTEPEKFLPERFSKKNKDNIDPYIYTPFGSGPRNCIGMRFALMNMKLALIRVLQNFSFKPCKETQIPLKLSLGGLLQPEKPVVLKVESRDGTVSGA

In the case of `CCc1ccc(C2=C(C)C(=O)C3(O2)C(=O)NC(OC)(C(=O)c2ccccc2)C3O)o1` (stereo not shown) [azaspirofuran A], in the data set on SHSY5Y cells, the “Cytotoxicity SHSY5Y cells, effect” value is listed as “Weak” and the half-inhibitory concentration (IC50) is more than 50 µM. For the same compound, on CYP3A4, the “CYP3A4, effect” value is recorded as “No effect” and the IC50 was more than 88 µM. Also, in the data set on HEPG2 cells, the “Cytotoxicity HEPG2 cells, effect” value is “No effect” and the half-inhibitory concentration (IC50) is more than 50 µM. On CYP2D6, the “CYP2D6, effect” value was “Weak” and the 50% inhibitory concentration (IC50) stood at 23.4 µM. Besides, in data set [1], the “reduction of percentage of larvae with PTZ-induced epileptiform activity” value is on record as approximately 60%, the “cumulative duration of epileptiform events” value is given as “shorter cumulative duration of events” and the “number of epileptiform events” value is recorded as “significantly less epileptiform events”.
Turning to `CC/C=C\[C@H](O)[C@H](O)C1=C(C)C(=O)[C@]2(O1)C(=O)N[C@](OC)(C(=O)c1ccccc1)[C@H]2O` [pseurotin A2], in the data set with SHSY5Y cells, the “Cytotoxicity SHSY5Y cells, effect” value is “Decrease” and the IC50 amounted to 17.9 µM. For the same compound, at CYP3A4, the “CYP3A4, effect” value is listed as “No effect” and the IC50 was more than 88 µM. For the same compound, in the data set on HEPG2 cells, the “Cytotoxicity HEPG2 cells, effect” value is listed as “No effect” and the IC50 is more than 50 µM. On CYP2D6, the “CYP2D6, effect” value was “No effect” and the half-maximal inhibitory concentration (IC50) is more than 88 µM. In data set [1], the “reduction of percentage of larvae with PTZ-induced epileptiform activity” value came out at 33%, the “cumulative duration of epileptiform events” value was “shorter cumulative duration of events” and the “number of epileptiform events” value is recorded as “significantly less epileptiform events”.
